{
  "source": "patent US8741836B2",
  "about": "“Polypeptides” (Novo Nordisk A/S, priority 2011, dated 2014)",
  "assay": "Assay (III) ThT fibrillation assay for physical stability",
  "assay_type": "physicochemical",
  "settings": "for ThT pH 4.0 lag time: pH 4.0, ThT fibrillation assay",
  "procedure,_shortened": "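Freshly prepared, pH-adjusted formulations with 1 μM ThT incubated at 37 °C under 960 rpm orbital shaking (1 mm), fluorescence (ex 444, em 485 nm) read every 20 min. […] Peptide content before and after measured by reverse-phase HPLC against pramlintide standard.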",
  "note": "Starred links: 1 amine or outer side, 2 acyl side, 3 side chain; linkers in the order of their positions; H or OH if unused. Positions of bridges follow the written chain, without caps; N, C: chain ends. Residues, ends and D or L forms follow the SMILES beside them. *: point of attachment. C20 diacid = O=C(O)CCCCCCCCCCCCCCCCCCC(=O)*; γGlu = O=C(O)[C@H](CCC(=O)[*:2])N[*:1]",
  "data": [
    {"molecule": "CC[C@H](C)[C@H](NC(=O)[C@@H]1CCCN1C(=O)CNC(=O)[C@H](Cc1ccccc1)NC(=O)[C@H](CC(N)=O)NC(=O)[C@H](CC(N)=O)NC(=O)[C@H](CO)NC(=O)[C@H](CO)NC(=O)[C@H](Cc1c[nH]cn1)NC(=O)[C@H](CCCNC(=N)N)NC(=O)[C@H](CC(C)C)NC(=O)[C@H](Cc1ccccc1)NC(=O)[C@H](CCC(=O)O)NC(=O)[C@H](C)NC(=O)[C@H](CC(C)C)NC(=O)[C@H](CCCNC(=N)N)NC(=O)[C@H](CCC(N)=O)NC(=O)[C@@H](NC(=O)[C@H](C)NC(=O)[C@@H]1CSSC[C@H](NC(=O)[C@H](CCCCN)NC(=O)CC[C@H](NC(=O)CCCCCCCCCCCCCCCCCCC(=O)O)C(=O)O)C(=O)N[C@@H](CC(N)=O)C(=O)N[C@@H]([C@@H](C)O)C(=O)N[C@@H](C)C(=O)N[C@@H]([C@@H](C)O)C(=O)N1)[C@@H](C)O)C(=O)N[C@@H](CC(C)C)C(=O)N1CCC[C@H]1C(=O)N1CCC[C@H]1C(=O)N[C@H](C(=O)N[C@@H](CC(N)=O)C(=O)N[C@H](C(=O)NCC(=O)N[C@@H](CO)C(=O)N[C@@H](Cc1cnc[nH]1)C(=O)N[C@H](C(=O)N[C@@H](Cc1ccc(O)cc1)C(N)=O)[C@@H](C)O)C(C)C)[C@@H](C)O", "note": "[Example 57, N-alpha-[(S)-4-Carboxy-4-(19-carboxynonadecanoylamino)butyryl]-[Glu14,Arg17,His35]-pramlintide] ({C20 diacid-γGlu}-KCNTATCATQRLAEFLRHSSNNFGPILPPTNVGSHTY-NH2; disulfide 2-7)", "values": [
      {"measurement": "ThT pH 4.0 lag time (physical stability in fibrillogenesis assay)", "result": ">45", "unit": "h"}
    ]},
    {"molecule": "CC[C@H](C)[C@H](NC(=O)[C@@H]1CCCN1C(=O)CNC(=O)[C@H](Cc1ccccc1)NC(=O)[C@H](CC(N)=O)NC(=O)[C@H](CC(N)=O)NC(=O)[C@H](CO)NC(=O)[C@H](CO)NC(=O)[C@H](Cc1c[nH]cn1)NC(=O)[C@H](Cc1c[nH]cn1)NC(=O)[C@H](CC(C)C)NC(=O)[C@H](Cc1ccccc1)NC(=O)[C@H](CCC(=O)O)NC(=O)[C@H](C)NC(=O)[C@H](CC(C)C)NC(=O)[C@H](CCCNC(=N)N)NC(=O)[C@H](CCC(N)=O)NC(=O)[C@@H](NC(=O)[C@H](C)NC(=O)[C@@H]1CSSC[C@H](NC(=O)[C@H](CCCCN)NC(=O)CC[C@H](NC(=O)CCCCCCCCCCCCCCCCCCC(=O)O)C(=O)O)C(=O)N[C@@H](CC(N)=O)C(=O)N[C@@H]([C@@H](C)O)C(=O)N[C@@H](C)C(=O)N[C@@H]([C@@H](C)O)C(=O)N1)[C@@H](C)O)C(=O)N[C@@H](CC(C)C)C(=O)N1CCC[C@H]1C(=O)N1CCC[C@H]1C(=O)N[C@H](C(=O)N[C@@H](CC(N)=O)C(=O)N[C@H](C(=O)NCC(=O)N[C@@H](CO)C(=O)N[C@@H](CC(N)=O)C(=O)N[C@@H](Cc1c[nH]cn1)C(=O)N[C@@H](Cc1ccc(O)cc1)C(N)=O)C(C)C)[C@@H](C)O", "note": "[Example 114, N-alpha-[(S)-4-Carboxy-4-(19-carboxynonadecanoylamino)butyryl]-[Glu14,His17,His36]-pramlintide] ({C20 diacid-γGlu}-KCNTATCATQRLAEFLHHSSNNFGPILPPTNVGSNHY-NH2; disulfide 2-7 (inferred))", "values": [
      {"measurement": "ThT pH 4.0 lag time", "result": ">45", "unit": "h"}
    ]},
    {"molecule": "CC[C@H](C)[C@H](NC(=O)[C@@H]1CCCN1C(=O)CNC(=O)[C@H](Cc1ccccc1)NC(=O)[C@H](CC(N)=O)NC(=O)[C@H](CC(N)=O)NC(=O)[C@H](CO)NC(=O)[C@H](CO)NC(=O)[C@H](Cc1c[nH]cn1)NC(=O)[C@H](Cc1c[nH]cn1)NC(=O)[C@H](CC(C)C)NC(=O)[C@H](Cc1ccccc1)NC(=O)[C@H](CCC(=O)O)NC(=O)[C@H](C)NC(=O)[C@H](CC(C)C)NC(=O)[C@H](CCCNC(=N)N)NC(=O)[C@H](CCC(N)=O)NC(=O)[C@@H](NC(=O)[C@H](C)NC(=O)[C@@H]1CSSC[C@H](NC(=O)[C@H](CCCCN)NC(=O)CC[C@H](NC(=O)CCCCCCCCCCCCCCCCCCC(=O)O)C(=O)O)C(=O)N[C@@H](CC(N)=O)C(=O)N[C@@H]([C@@H](C)O)C(=O)N[C@@H](C)C(=O)N[C@@H]([C@@H](C)O)C(=O)N1)[C@@H](C)O)C(=O)N[C@@H](CC(C)C)C(=O)N1CCC[C@H]1C(=O)N1CCC[C@H]1C(=O)N[C@H](C(=O)N[C@@H](CC(N)=O)C(=O)N[C@H](C(=O)NCC(=O)N[C@@H](CO)C(=O)N[C@@H](CCCCN)C(=O)N[C@H](C(=O)N[C@@H](Cc1ccc(O)cc1)C(N)=O)[C@@H](C)O)C(C)C)[C@@H](C)O", "note": "[Example 113, N-alpha-[(S)-4-Carboxy-4-(19-carboxynonadecanoylamino)butyryl]-[Glu14,His17,Lys35]-pramlintide] ({C20 diacid-γGlu}-KCNTATCATQRLAEFLHHSSNNFGPILPPTNVGSKTY-NH2; disulfide 2-7 (inferred))", "values": [
      {"measurement": "ThT pH 4.0 lag time (physical stability in fibrillogenesis assay)", "result": ">45", "unit": "h"},
      {"measurement": "ThT pH 4.0 lag time", "result": ">45", "unit": "h"}
    ]},
    {"molecule": "CC[C@H](C)[C@H](NC(=O)[C@@H]1CCCN1C(=O)CNC(=O)[C@H](Cc1ccccc1)NC(=O)[C@H](CC(N)=O)NC(=O)[C@H](CC(N)=O)NC(=O)[C@H](CO)NC(=O)[C@H](CO)NC(=O)[C@H](CCCNC(=N)N)NC(=O)[C@H](Cc1c[nH]cn1)NC(=O)[C@H](CC(C)C)NC(=O)[C@H](Cc1ccccc1)NC(=O)[C@H](CCC(=O)O)NC(=O)[C@H](C)NC(=O)[C@H](CC(C)C)NC(=O)[C@H](CCCNC(=N)N)NC(=O)[C@H](CCC(N)=O)NC(=O)[C@@H](NC(=O)[C@H](C)NC(=O)[C@@H]1CSSC[C@H](NC(=O)[C@H](Cc2c[nH]cn2)NC(=O)CC[C@H](NC(=O)CCCCCCCCCCCCCCCCCCC(=O)O)C(=O)O)C(=O)N[C@@H](CC(N)=O)C(=O)N[C@@H]([C@@H](C)O)C(=O)N[C@@H](C)C(=O)N[C@@H]([C@@H](C)O)C(=O)N1)[C@@H](C)O)C(=O)N[C@@H](CC(C)C)C(=O)N1CCC[C@H]1C(=O)N1CCC[C@H]1C(=O)N[C@H](C(=O)N[C@@H](CC(N)=O)C(=O)N[C@H](C(=O)NCC(=O)N[C@@H](CO)C(=O)N[C@@H](Cc1c[nH]cn1)C(=O)N[C@H](C(=O)N[C@@H](Cc1ccc(O)cc1)C(N)=O)[C@@H](C)O)C(C)C)[C@@H](C)O", "note": "[Example 77, N-alpha-[(S)-4-Carboxy-4-(19-carboxynonadecanoylamino)butyryl]-[His1,Glu14,His17,Arg18,His35]-pramlintide] ({C20 diacid-γGlu}-HCNTATCATQRLAEFLHRSSNNFGPILPPTNVGSHTY-NH2; disulfide 2-7 (inferred))", "values": [
      {"measurement": "ThT pH 4.0 lag time", "result": ">45", "unit": "h"}
    ]}
  ]
}
